Columns and labels:
[1] = Up-regulation of transcriptional activity of human CLA-1 promoter region -1055 to -62bp transfected in HepG2 cells by luciferase reporter gene assay; assay type: cell-based
[2] = tested on: U2OS; test: Cytotoxicity against human U2OS cells after 96 hrs by MTT assay; assay type: functional, cell-based
[3] = tested on: HepG2; test: Cytotoxicity against human HepG2 cells after 96 hrs by MTT assay; assay type: functional, cell-based; conditions: HepG2, 96 h
[4] = tested on: HeLa; test: Cytotoxicity against human HeLa cells after 96 hrs by MTT assay; assay type: functional, cell-based
[5] = Cytotoxicity against human LO2 cells after 96 hrs by MTT assay; assay type: cell-based; conditions: L02, 96 h
[6] = tested on: HEK293; test: Cytotoxicity against human HEK293 cells after 96 hrs by MTT assay; assay type: cell-based; conditions: HEK293, 96 h

Row | SMILES | EC50 [1] [µM] | IC50 [2] [µM] | IC50 [3] [µM] | IC50 [4] [µM] | IC50 [5] [µM] | IC50 [6] [µM]
1 | CNc1ccc(C(=O)[C@](C)(O)/C=C(C)/C=C/C(N)=O)cc1 | > 100 | > 200 | > 200 | > 200 | > 200 | > 100
2 | CNc1ccc(C(=O)[C@](C)(O)/C=C(C)/C=C/C(=O)NO)cc1 | 14.3 | > 200 | > 200 | > 200 | 15.5 | 14.2
3 | CC(/C=C/C(N)=O)=C\[C@@](C)(O)C(=O)c1ccc(N(C)C)cc1 | > 100 | > 200 | > 200 | > 200 | > 200 | > 100
4 | CC(=C/[C@@H](C)C(=O)c1ccc(N(C)C)cc1)/C=C/C(=O)O | > 100 | > 200 | > 200 | > 200 | > 200 | > 100
5 | CC(/C=C/C(N)=O)=C\[C@@H](C)C(=O)c1ccc(N(C)C)cc1 | 2.39 | > 200 | > 200 | > 200 | 29.1 | 26.2
6 | CNC(=O)/C=C/C(C)=C/[C@@H](C)C(=O)c1ccc(N(C)C)cc1 | 78.8 | > 200 | > 200 | > 200 | 23.9 | 8.14
7 | CC(/C=C/C(=O)NO[C@H]1O[C@H](CO)[C@@H](O)[C@H](O)[C@H]1O)=C\[C@@H](C)C(=O)c1ccc(N(C)C)cc1 | 48.2 | > 200 | > 200 | > 200 | > 200 | > 100
8 | CC(/C=C/C(=O)NO[C@@H]1O[C@H](CO)[C@@H](O)[C@H](O)[C@H]1O)=C\[C@@H](C)C(=O)c1ccc(N(C)C)cc1 | 46 | > 200 | > 200 | > 200 | > 200 | > 100
9 | CC(/C=C/C(=O)O)=C\[C@@H](C)C(=O)c1ccc(N(C)C)cc1 [TRICHOSTATIC ACID] | > 100 | > 200 | > 200 | > 200 | 89.2 | 86.6
10 | CC(/C=C/C(=O)NO)=C\[C@@H](C)C(=O)c1ccc(N(C)C)cc1 [TRICHOSTATIN] | 0.38 | 14.9 | 0.96 | 0.85 | 0.21 | 0.16
